The values below come from EP2970215B1, “PYRROLIDINE DERIVATIVES, PHARMACEUTICAL COMPOSITIONS CONTAINING THEM, AND THEIR USE IN THERAPY” (AbbVie Deutschland GmbH & Co. KG, priority 2013, dated 2014).

The target in the test is T1, human GlyT1c transporter (Homo sapiens, UniProt P48067).
T1 construct: expressed in transfected cells; host or cells: CHO cells (recombinant; line hGlyT1c_5_CHO is named for the uptake assay)
T1 sequence (P48067 1-706): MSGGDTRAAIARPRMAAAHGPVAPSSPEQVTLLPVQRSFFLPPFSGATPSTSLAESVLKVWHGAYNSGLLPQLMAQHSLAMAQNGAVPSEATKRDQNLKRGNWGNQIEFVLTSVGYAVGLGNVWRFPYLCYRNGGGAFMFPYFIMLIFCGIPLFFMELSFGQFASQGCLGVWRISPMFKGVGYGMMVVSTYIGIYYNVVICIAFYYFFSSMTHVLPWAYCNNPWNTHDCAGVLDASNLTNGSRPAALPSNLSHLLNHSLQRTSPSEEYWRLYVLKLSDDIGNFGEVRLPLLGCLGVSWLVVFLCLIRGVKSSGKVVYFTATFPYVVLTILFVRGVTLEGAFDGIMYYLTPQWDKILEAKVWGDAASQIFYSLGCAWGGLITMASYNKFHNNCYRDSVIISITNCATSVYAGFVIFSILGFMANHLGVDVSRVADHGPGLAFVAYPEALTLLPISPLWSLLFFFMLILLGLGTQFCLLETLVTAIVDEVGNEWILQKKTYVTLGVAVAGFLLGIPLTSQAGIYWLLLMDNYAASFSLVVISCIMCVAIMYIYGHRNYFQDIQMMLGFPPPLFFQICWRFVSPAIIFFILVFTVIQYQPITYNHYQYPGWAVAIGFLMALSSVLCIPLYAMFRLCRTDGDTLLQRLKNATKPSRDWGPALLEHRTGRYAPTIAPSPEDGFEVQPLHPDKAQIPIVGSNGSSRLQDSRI
Nature of the test: Radioligand binding assay using recombinant CHO cell membranes expressing human GlyT1. To be noted: radioligand binding to human GlyT1c transporter-expressing membranes. The text has this:
2. Radioligand binding assays using recombinant CHO cell membranes expressing human GlyT1: […]
The term Ki denotes a dissociation constant, usually derived from enzyme kinetics or from competition with a known ligand. Take `Cn1cnc(S(=O)(=O)N2C[C@@H](Nc3cccc(F)c3)[C@H](c3ccccc3Cl)C2)c1` (relative stereo) [Example 252, trans-4-(2-chlorophenyl)-N-(3-fluorophenyl)-1-[(1-methyl-1H-imidazol-4-yl)sulfonyl]pyrrolidin-3-amine]: the inhibition constant (Ki) was at most 1000 nM. In the case of `O=C(N[C@@H]1CN(S(=O)(=O)CC2CC2)C[C@H]1c1ccccc1)c1ccc(C(F)(F)F)cc1` (relative stereo) [Example 128, N-{trans-1-[(cyclopropylmethyl)sulfonyl]-4-phenylpyrrolidin-3-yl}-4-(trifluoromethyl)benzamide], the Ki is at most 10000 nM. As to `Cn1cnc(S(=O)(=O)N2C[C@@H](CNCc3ccccc3)[C@H](c3ccc(F)cc3)C2)c1` (relative stereo) [Example 315, N-benzyl-1-{trans-4-(4-fluorophenyl)-1-[(1-methyl-1H-imidazol-4-yl)sulfonyl]pyrrolidin-3-yl}methanamine], the Ki was at most 1000 nM. For the compound `Cn1cnc(S(=O)(=O)N2C[C@@H](Nc3ccnc(C(F)(F)F)c3)[C@H](c3ccccc3)C2)c1` (relative stereo) [Example 211, N-{trans-1-[(1-methyl-1H-imidazol-4-yl)sulfonyl]-4-phenylpyrrolidin-3-yl}-2-(trifluoromethyl)pyridin-4-amine], the Ki is at most 1000 nM. As for `Cc1cc(C#N)cc(N[C@@H]2CN(S(=O)(=O)c3cn(C)cn3)C[C@H]2c2ccccc2)c1` (relative stereo) [Example 101, 3-methyl-5-({trans-1-[(1-methyl-1H-imidazol-4-yl)sulfonyl]-4-phenylpyrrolidin-3-yl}amino)benzonitrile], the figure is at most 1000 nM; as for `Cn1cnc(S(=O)(=O)N2C[C@H](NC(=O)Nc3ccc(Cl)cc3)[C@@H](c3ccc(F)cc3)C2)c1` [Example 701, 1-(4-chlorophenyl)-3-{(3R,4S)-4-(4-fluorophenyl)-1-[(1-methyl-1H-imidazol-4-yl)sulfonyl]pyrrolidin-3-yl}urea], at most 1000 nM. For `Cc1ccc2sc(CN[C@H]3CN(S(=O)(=O)c4cn(C)cn4)C[C@@H]3c3ccccc3)cc2c1` [Example 437, (3R,4S)-N-[(5-methyl-1-benzothiophen-2-yl)methyl]-1-[(1-methyl-1H-imidazol-4-yl)sulfonyl]-4-phenylpyrrolidin-3-amine], the Ki was at most 100 nM.

Consider `Cn1cc(S(=O)(=O)N2C[C@@H](NC(=O)c3cccc(C(F)(F)F)c3Cl)[C@H](c3ccccc3)C2)cn1` (relative stereo) [Example 43, 2-chloro-N-{trans-1-[(1-methyl-1H-pyrazol-4-yl)sulfonyl]-4-phenylpyrrolidin-3-yl}-3-(trifluoromethyl)benzamide], for which the Ki is at most 10000 nM. As to `COc1ccc(S(=O)(=O)N2C[C@@H](NC(=O)c3cccc(C(F)(F)F)c3Cl)[C@H](c3ccccc3)C2)cn1` (relative stereo) [Example 44, 2-chloro-N-{trans-1-[(6-methoxypyridin-3-yl)sulfonyl}-4-phenylpyrrolidin-3-yl}-3-(trifluoromethyl)benzamide], the Ki was at most 10000 nM. In the case of `Cn1cnc(S(=O)(=O)N2C[C@@H](Nc3cc(C#N)ccc3Cl)[C@H](c3ccccc3)C2)c1` (relative stereo) [Example 81, 4-chloro-3-({trans-1-[(1-methyl-1H-imidazol-4-yl)sulfonyl]-4-phenylpyrrolidin-3-yl}amino)benzonitrile] it was at most 10000 nM; in that of `Cn1cnc(S(=O)(=O)N2C[C@@H](NC(=O)c3ccc(Cl)cc3Cl)[C@H](c3ccccc3)C2)c1` (relative stereo) [Example 26, 2,4-dichloro-N-{trans-1-[(1-methyl-1H-imidazol-4-yl)sulfonyl]-4-phenylpyrrolidin-3-yl}benzamide], at most 1000 nM; in that of `Cn1cnc(S(=O)(=O)N2C[C@H](Nc3cccc(OCC(F)(F)F)c3)[C@@H](c3ccc(F)cc3)C2)c1` [Example 744, (3R,4S)-4-(4-fluorophenyl)-1-[(1-methyl-1H-imidazol-4-yl)sulfonyl]-N-[3-(2,2,2-trifluoroethoxy)phenyl]pyrrolidin-3-amine], at most 10 nM.
